Starred links: 1 amine or outer side, 2 acyl side, 3 side chain; linkers in the order of their positions; H or OH if unused. Non-standard residues stand in square brackets, D forms with d. Residues, ends and D or L forms follow the SMILES beside them. Groups on a side chain read outwards from the residue. *: point of attachment. X1 = O=C(O)CCCCCCCCCCCCCCCCCCC(=O)N1CCN(CC(=O)*)CC1; C20 diacid = O=C(O)CCCCCCCCCCCCCCCCCCC(=O)*; γGlu = O=C(O)[C@H](CCC(=O)[*:2])N[*:1]; AEEA = NCCOCCOCC(=O)O; Aib = CC(C)(N)C(=O)O
Tests used:
[1] = molecular target: T1, human GIP receptor (GIP R) (Homo sapiens, UniProt P48546); test: Activity assay at human GIP receptor, cAMP induction (AlphaScreen), Example 3
T1 sequence (P48546 22-466): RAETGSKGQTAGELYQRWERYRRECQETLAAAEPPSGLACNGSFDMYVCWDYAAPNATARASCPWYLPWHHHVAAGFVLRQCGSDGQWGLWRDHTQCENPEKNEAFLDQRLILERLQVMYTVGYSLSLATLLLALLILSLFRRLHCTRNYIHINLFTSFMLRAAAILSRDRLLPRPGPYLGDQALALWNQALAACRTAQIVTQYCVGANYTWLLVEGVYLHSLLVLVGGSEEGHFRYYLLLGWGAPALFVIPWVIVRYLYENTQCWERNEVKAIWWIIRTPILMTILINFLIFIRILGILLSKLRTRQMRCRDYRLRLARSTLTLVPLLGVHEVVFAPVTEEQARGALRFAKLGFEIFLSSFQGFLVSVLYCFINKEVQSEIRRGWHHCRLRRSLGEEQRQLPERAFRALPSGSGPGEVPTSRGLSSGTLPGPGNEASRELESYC

human GIP R = molecular target: T2, human GIP R (Homo sapiens, UniProt P48546); test: cell-based
T2 sequence (P48546 22-466): T1 sequence (P48546 22-466)

[2] = molecular target: human GLP-1 receptor (GLP-1R) (Homo sapiens, UniProt P43220); test: Activity assay at human GLP-1 receptor, cAMP induction (AlphaScreen), Example 3
Sequence of human GLP-1 receptor (GLP-1R) (P43220 24-463): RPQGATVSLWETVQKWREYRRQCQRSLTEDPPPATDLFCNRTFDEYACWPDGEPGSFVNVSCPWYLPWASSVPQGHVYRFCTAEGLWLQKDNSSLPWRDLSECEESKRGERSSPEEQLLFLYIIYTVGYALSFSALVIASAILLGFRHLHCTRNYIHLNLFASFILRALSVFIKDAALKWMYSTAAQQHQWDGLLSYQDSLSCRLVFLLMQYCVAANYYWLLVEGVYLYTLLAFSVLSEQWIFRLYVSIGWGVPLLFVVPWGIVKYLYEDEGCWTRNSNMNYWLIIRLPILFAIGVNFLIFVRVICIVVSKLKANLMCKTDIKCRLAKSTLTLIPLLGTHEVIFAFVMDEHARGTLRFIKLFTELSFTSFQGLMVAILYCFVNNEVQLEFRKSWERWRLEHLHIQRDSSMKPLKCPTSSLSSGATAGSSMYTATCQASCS

SMILES | EC50 [1] [nM] | EC50 (human GIP R) [nM] | EC50 [2] [nM]
CC[C@H](C)[C@H](NC(=O)[C@H](CCCCN)NC(=O)[C@H](CC(=O)O)NC(=O)[C@H](CC(C)C)NC(=O)[C@H](CCC(=O)O)NC(=O)[C@@H](NC(=O)[C@H](CO)NC(=O)[C@H](Cc1ccc(O)cc1)NC(=O)[C@H](CC(=O)O)NC(=O)[C@H](CO)NC(=O)[C@@H](NC(=O)[C@H](Cc1ccccc1)NC(=O)[C@@H](NC(=O)CNC(=O)[C@H](CCC(=O)O)NC(=O)C(C)(C)NC(=O)[C@@H](N)Cc1ccc(O)cc1)[C@@H](C)O)[C@@H](C)CC)[C@@H](C)CC)C(=O)N[C@@H](C)C(=O)N[C@@H](C)C(=O)N[C@@H](CCC(N)=O)C(=O)N[C@@H](CC(=O)O)C(=O)N[C@@H](Cc1ccccc1)C(=O)N[C@H](C(=O)N[C@@H](CCC(=O)O)C(=O)N[C@@H](Cc1c[nH]c2ccccc12)C(=O)N[C@@H](CC(C)C)C(=O)N[C@@H](CC(C)C)C(=O)N[C@@H](C)C(=O)NCC(=O)N1CCC[C@H]1C(=O)N[C@@H](CO)C(=O)N[C@@H](CO)C(=O)NCC(=O)N[C@@H](C)C(=O)N1CCC[C@H]1C(=O)N1CCC[C@H]1C(=O)N1CCC[C@H]1C(=O)N[C@@H](CO)C(=O)N[C@@H](CCCCNC(=O)COCCOCCNC(=O)COCCOCCNC(=O)CN1CCN(C(=O)CCCCCCCCCCCCCCCCCCC(=O)O)CC1)C(N)=O)[C@@H](C)CC [Compound 26] (H-Y[Aib]EGTFISDYSIELDKIAAQDFIEWLLAGPSSGAPPPSK([AEEA-AEEA-X1])-NH2) | 0.032 | 0.017 | > 10
CC[C@H](C)[C@H](NC(=O)[C@H](CCCCN)NC(=O)[C@H](CC(=O)O)NC(=O)[C@H](CC(C)C)NC(=O)[C@H](CCC(=O)O)NC(=O)[C@@H](NC(=O)[C@H](CO)NC(=O)[C@H](Cc1ccc(O)cc1)NC(=O)[C@H](CC(=O)O)NC(=O)[C@H](CO)NC(=O)[C@@H](NC(=O)[C@H](Cc1ccccc1)NC(=O)[C@@H](NC(=O)CNC(=O)[C@H](CCC(=O)O)NC(=O)C(C)(C)NC(=O)[C@@H](N)Cc1ccc(O)cc1)[C@@H](C)O)[C@@H](C)CC)[C@@H](C)CC)C(=O)N[C@@H](C)C(=O)N[C@@H](C)C(=O)N[C@@H](CCC(N)=O)C(=O)N[C@@H](CC(=O)O)C(=O)N[C@@H](Cc1ccccc1)C(=O)N[C@H](C(=O)N[C@@H](CCC(=O)O)C(=O)N[C@@H](Cc1c[nH]c2ccccc12)C(=O)N[C@@H](CC(C)C)C(=O)N[C@@H](CC(C)C)C(=O)N[C@@H](C)C(=O)NCC(=O)N1CCC[C@H]1C(=O)N[C@@H](CO)C(=O)N[C@@H](CO)C(=O)NCC(=O)N[C@@H](C)C(=O)N1CCC[C@H]1C(=O)N1CCC[C@H]1C(=O)N1CCC[C@H]1C(=O)N[C@@H](CO)C(=O)N[C@@H](CCCCNC(=O)COCCOCCNC(=O)COCCOCCNC(=O)CC[C@H](NC(=O)CCCCCCCCCCCCCCCCCCC(=O)O)C(=O)O)C(N)=O)C(C)C [Compound 27] (H-Y[Aib]EGTFISDYSIELDKIAAQDFVEWLLAGPSSGAPPPSK([AEEA-AEEA-γGlu-C20 diacid])-NH2) | 0.017 | 0.013 | > 10
CC[C@H](C)[C@H](NC(=O)[C@H](CCCCN)NC(=O)[C@H](CC(=O)O)NC(=O)[C@H](CC(C)C)NC(=O)[C@H](CCC(=O)O)NC(=O)[C@@H](NC(=O)[C@H](CO)NC(=O)[C@H](Cc1ccc(O)cc1)NC(=O)[C@H](CC(=O)O)NC(=O)[C@H](CO)NC(=O)[C@@H](NC(=O)[C@H](Cc1ccccc1)NC(=O)[C@@H](NC(=O)CNC(=O)[C@H](CCC(=O)O)NC(=O)C(C)(C)NC(=O)[C@@H](N)Cc1ccc(O)cc1)[C@@H](C)O)[C@@H](C)CC)[C@@H](C)CC)C(=O)N[C@@H](C)C(=O)N[C@@H](CCC(N)=O)C(=O)N[C@@H](CCCNC(=N)N)C(=O)N[C@@H](C)C(=O)N[C@@H](Cc1ccccc1)C(=O)N[C@H](C(=O)N[C@@H](CCC(=O)O)C(=O)N[C@@H](Cc1c[nH]c2ccccc12)C(=O)N[C@@H](CC(C)C)C(=O)N[C@@H](CC(C)C)C(=O)N[C@@H](C)C(=O)N[C@@H](CCC(N)=O)C(=O)NCC(=O)N1CCC[C@H]1C(=O)N[C@@H](CO)C(=O)N[C@@H](CO)C(=O)NCC(=O)N[C@@H](C)C(=O)N1CCC[C@H]1C(=O)N1CCC[C@H]1C(=O)N1CCC[C@H]1C(=O)N[C@@H](CO)C(=O)N[C@@H](CCCCNC(=O)COCCOCCNC(=O)COCCOCCNC(=O)CC[C@H](NC(=O)CCCCCCCCCCCCCCCCCCC(=O)O)C(=O)O)C(N)=O)[C@@H](C)CC [Compound 28] (H-Y[Aib]EGTFISDYSIELDKIAQRAFIEWLLAQGPSSGAPPPSK([AEEA-AEEA-γGlu-C20 diacid])-NH2) | 0.013 | 0.007 | > 3
CC[C@H](C)[C@H](NC(=O)[C@H](CO)NC(=O)[C@H](Cc1ccc(O)cc1)NC(=O)[C@H](CC(=O)O)NC(=O)[C@H](CO)NC(=O)[C@@H](NC(=O)[C@H](Cc1ccccc1)NC(=O)[C@@H](NC(=O)CNC(=O)[C@H](CCC(=O)O)NC(=O)C(C)(C)NC(=O)[C@@H](N)Cc1ccc(O)cc1)[C@@H](C)O)[C@@H](C)CC)C(=O)N[C@@H](CCC(=O)O)C(=O)N[C@@H](CC(C)C)C(=O)N[C@@H](CC(=O)O)C(=O)N[C@@H](CCCCN)C(=O)N[C@@H](CCCCNC(=O)COCCOCCNC(=O)COCCOCCNC(=O)CC[C@H](NC(=O)CCCCCCCCCCCCCCCCCCC(=O)O)C(=O)O)C(=O)N[C@@H](C)C(=O)N[C@@H](C)C(=O)N[C@@H](CCC(N)=O)C(=O)N[C@@H](C)C(=O)N[C@@H](Cc1ccccc1)C(=O)N[C@H](C(=O)N[C@@H](CC(N)=O)C(=O)N[C@@H](Cc1c[nH]c2ccccc12)C(=O)N[C@@H](CC(C)C)C(=O)N[C@@H](CC(C)C)C(=O)N[C@@H](C)C(=O)NCC(=O)N1CCC[C@H]1C(=O)N[C@@H](CO)C(=O)N[C@@H](CO)C(=O)NCC(=O)N[C@@H](C)C(=O)N1CCC[C@H]1C(=O)N1CCC[C@H]1C(=O)N1CCC[C@H]1C(=O)N[C@@H](CO)C(N)=O)C(C)C [Compound 29] (H-Y[Aib]EGTFISDYSIELDKK([AEEA-AEEA-γGlu-C20 diacid])AAQAFVNWLLAGPSSGAPPPS-NH2) | 0.007 | 0.014 | > 100
CC[C@H](C)[C@H](NC(=O)[C@H](CO)NC(=O)[C@H](Cc1ccc(O)cc1)NC(=O)[C@H](CC(=O)O)NC(=O)[C@H](CO)NC(=O)[C@@H](NC(=O)[C@H](Cc1ccccc1)NC(=O)[C@@H](NC(=O)CNC(=O)[C@H](CCC(=O)O)NC(=O)C(C)(C)NC(=O)[C@@H](N)Cc1ccc(O)cc1)[C@@H](C)O)[C@@H](C)CC)C(=O)N[C@@H](CCC(=O)O)C(=O)N[C@@H](CC(C)C)C(=O)N[C@@H](CC(=O)O)C(=O)N[C@@H](CCCCN)C(=O)N[C@@H](CCCCNC(=O)COCCOCCNC(=O)COCCOCCNC(=O)CC[C@H](NC(=O)CCCCCCCCCCCCCCCCCCC(=O)O)C(=O)O)C(=O)N[C@@H](C)C(=O)N[C@@H](C)C(=O)N[C@@H](CCC(N)=O)C(=O)N[C@@H](CC(=O)O)C(=O)N[C@@H](Cc1ccccc1)C(=O)N[C@H](C(=O)N[C@@H](CC(N)=O)C(=O)N[C@@H](Cc1c[nH]c2ccccc12)C(=O)N[C@@H](CC(C)C)C(=O)N[C@@H](CC(C)C)C(=O)N[C@@H](C)C(=O)N[C@@H](C)C(=O)NCC(=O)N1CCC[C@H]1C(=O)N[C@@H](CO)C(=O)N[C@@H](CO)C(=O)NCC(=O)N[C@@H](C)C(=O)N1CCC[C@H]1C(=O)N1CCC[C@H]1C(=O)N1CCC[C@H]1C(=O)N[C@@H](CO)C(N)=O)C(C)C [Compound 30] (H-Y[Aib]EGTFISDYSIELDKK([AEEA-AEEA-γGlu-C20 diacid])AAQDFVNWLLAAGPSSGAPPPS-NH2) | 0.014 | 0.009 | > 10
